Each structure is given as a SMILES string. ± gives the standard deviation.

Series [1] can be described thus: chemical recovery from spiked human plasma; higher = better extraction. The settings on record: pooled human plasma.
A short description of series [2]: chemical recovery into PDMS from spiked human plasma; higher = better extraction. The settings on record: pooled human plasma, extraction method: PES with PDMS.
Series [3] can be described thus: chemical recovery by SPE of plasma after PDMS sampling; higher = better extraction. Particulars: pooled human plasma, extraction method: HLB SPE of plasma after PES.
Where [4] appears, read: extraction method: PES+SPE (3 d PDMS equilibration then HLB SPE).
The mark [5] stands for this setting: extraction method: SPE only (HLB 96-well).
Where [6] appears, read: extraction method: solvent precipitation (ACN + hexane).
Setting [7] is: extraction method: SPE only (HLB 96-well), PES comparison experiment.
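Throughout, for chemical recovery by SPE of plasma after PDMS sampling: over 400 spiked chemicals quantified by LC-HRMS or GC-HRMS via internal standard calibration, recovery relative to spike mix added to unspiked plasma extract to correct matrix effects.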

In the case of `CN1C(=O)CC[C@H]1c1cccnc1` [Cotinine], the values for the chemical recovery in series [1] (setting [4]), in series [1] (setting [5]) and in series [1] (setting [6]) were 23.3 ± 6.5%, 6.77 ± 2.8% and 80.5 ± 3.5%, respectively. Moreover, the entries for the “chemical recovery into PDMS” value in series [2] (equilibration time (d): 1), in series [2] (equilibration time (d): 3) and in series [2] (equilibration time (d): 6) were 6.6 ± 0.43%, 10.6 ± 2.5% and 11.6 ± 1.5%, respectively. In addition, the entries for the “chemical recovery by SPE of plasma” value in series [3] (equilibration time (d): 1), in series [3] (equilibration time (d): 3) and in series [3] (equilibration time (d): 6) were 6.83 ± 6.3%, 2.33 ± 0.49% and 4.13 ± 1.4%, respectively.

In the case of `O=S(=O)(O)NC1CCCCC1` [Cyclamate], the chemical recovery in series [1] (setting [4]) was determined as 5.77 ± 0.89%; in series [1] (setting [5]), 7.88 ± 2.3%; in series [1] (setting [6]), 71.8 ± 4.1%. Also, the “chemical recovery into PDMS” value came out at 0.0113 ± 0.022% in series [2] (equilibration time (d): 3) and 0.00679 ± 0.0059% in series [2] (equilibration time (d): 6). Further, the “chemical recovery by SPE of plasma” value was 7.95 ± 6.1% in series [3] (equilibration time (d): 1), 5.41 ± 0.92% in series [3] (equilibration time (d): 3) and 8.35 ± 3.4% in series [3] (equilibration time (d): 6).

`Cc1cc(C2CC2)nc(Nc2ccccc2)n1` [Cyprodinil]: the values for the chemical recovery in series [1] (setting [7]) and in series [1] (setting [6]) were 38.5 ± 5.9% and 69.9 ± 3.2%, respectively. Further, the “chemical recovery into PDMS” value was 33.5 ± 1.8% in series [2] (equilibration time (d): 1), 36.1 ± 3.9% in series [2] (equilibration time (d): 3) and 36.2 ± 1.2% in series [2] (equilibration time (d): 6). The results for the “chemical recovery by SPE of plasma” value in series [3] (equilibration time (d): 1), in series [3] (equilibration time (d): 3) and in series [3] (equilibration time (d): 6) were 0.89 ± 0.78%, 0.733 ± 0.65% and 0.362 ± 0.33%, respectively.

On to `CC(=O)[C@@]1(O)CC[C@H]2[C@@H]3C=C(Cl)C4=CC(=O)[C@@H]5C[C@@H]5[C@]4(C)[C@H]3CC[C@@]21C` [Cyproterone], for which, in series [1] (setting [7]), the chemical recovery turned out to be 44.8 ± 7%. Also, the entries for the “chemical recovery into PDMS” value in series [2] (equilibration time (d): 1), in series [2] (equilibration time (d): 3) and in series [2] (equilibration time (d): 6) were 34.4 ± 3.3%, 39 ± 1.6% and 39.5 ± 1.2%, respectively. Moreover, the “chemical recovery by SPE of plasma” value in series [3] (equilibration time (d): 1) worked out at 7.2 ± 0.97%; in series [3] (equilibration time (d): 3), 4.61 ± 0.52%; in series [3] (equilibration time (d): 6), 2.35 ± 0.21%.

Turning to `Nc1nc(N)nc(NC2CC2)n1` [Cyromazine], the chemical recovery was determined as 3.13 ± 0.61% in series [1] (setting [4]), 2.36 ± 2.5% in series [1] (setting [5]) and 72.9 ± 2.3% in series [1] (setting [6]). Moreover, the “chemical recovery into PDMS” value in series [2] (equilibration time (d): 6) was determined as 1.4 ± 0.44%. In addition, in series [3] (equilibration time (d): 6), the “chemical recovery by SPE of plasma” value was found to be 5.59 ± 4.5%.

The compound `CN(C)NC(=O)CCC(=O)O` [Daminozide] registered a chemical recovery in series [1] (setting [7]) of 3.23 ± 3.4%. For the same compound, the “chemical recovery into PDMS” value in series [2] (equilibration time (d): 6) was 0.0133 ± 0.023%. The entries for the “chemical recovery by SPE of plasma” value in series [3] (equilibration time (d): 1), in series [3] (equilibration time (d): 3) and in series [3] (equilibration time (d): 6) were 1.49 ± 2.5%, 0.206 ± 0.36% and 0.536 ± 0.28%, respectively.

`CC(C)Nc1nc(N)nc(Cl)n1` [Desethylatrazine]: the chemical recovery in series [1] (setting [4]) was found to be 61.1 ± 5.3%; in series [1] (setting [5]) it was 45.4 ± 3.1%; in series [1] (setting [7]), 51 ± 8.1%; in series [1] (setting [6]), 45 ± 15%. Besides, the “chemical recovery into PDMS” value in series [2] (equilibration time (d): 1) is 11.2 ± 0.61%; in series [2] (equilibration time (d): 3), 16.9 ± 1.5%; in series [2] (equilibration time (d): 6), 18.5 ± 2.4%. Besides, the “chemical recovery by SPE of plasma” value came to 30.4 ± 3.7% in series [3] (equilibration time (d): 1), 26.3 ± 3.2% in series [3] (equilibration time (d): 3) and 19 ± 2.4% in series [3] (equilibration time (d): 6).

Consider `CC(C)(C)Nc1nc(N)nc(Cl)n1` [Desethylterbutylazine], for which the chemical recovery was 40.7 ± 4.8% in series [1] (setting [4]), 42.1 ± 2.3% in series [1] (setting [5]) and 46.9 ± 5.4% in series [1] (setting [7]). Besides, the “chemical recovery into PDMS” value was determined as 38 ± 1.5% in series [2] (equilibration time (d): 1), 40.9 ± 0.82% in series [2] (equilibration time (d): 3) and 42.7 ± 1.9% in series [2] (equilibration time (d): 6). The “chemical recovery by SPE of plasma” value in series [3] (equilibration time (d): 1) came to 10 ± 1.1%; in series [3] (equilibration time (d): 3) it was 9.29 ± 1%; in series [3] (equilibration time (d): 6), 6.03 ± 0.45%.

`Clc1ccc2c(c1)CCc1cccnc1C2=C1CCNCC1` [Desloratadine]: the chemical recovery in series [1] (setting [4]) came out at 2.22 ± 0.35%; in series [1] (setting [5]), 30.1 ± 1.7%; in series [1] (setting [6]) it was 59.9 ± 1.8%. For the same compound, the “chemical recovery into PDMS” value in series [2] (equilibration time (d): 1) was 0.203 ± 0.15%; in series [2] (equilibration time (d): 3), 0.0639 ± 0.025%; in series [2] (equilibration time (d): 6), 0.452 ± 0.57%. The “chemical recovery by SPE of plasma” value in series [3] (equilibration time (d): 1) turned out to be 3.67 ± 0.83%; in series [3] (equilibration time (d): 3), 4.32 ± 0.44%; in series [3] (equilibration time (d): 6), 2.93 ± 0.67%.

As for `Nc1cn[nH]c(=O)c1Cl` [Desphenyl chloridazon], in series [1] (setting [7]), the chemical recovery stood at 6.79 ± 4.2%. Moreover, the “chemical recovery into PDMS” value is 0.0144 ± 0.043% in series [2] (equilibration time (d): 1), 0.133 ± 0.038% in series [2] (equilibration time (d): 3) and 0.161 ± 0.2% in series [2] (equilibration time (d): 6). The figures for the “chemical recovery by SPE of plasma” value in series [3] (equilibration time (d): 1), in series [3] (equilibration time (d): 3) and in series [3] (equilibration time (d): 6) were 2.76 ± 0.75%, 2.06 ± 0.86% and 3.77 ± 0.81%, respectively.

For `CN1C(=O)CN=C(c2ccccc2)c2cc(Cl)ccc21` [Diazepam], the chemical recovery was 66.5 ± 10% in series [1] (setting [4]), 56.2 ± 2.7% in series [1] (setting [5]), 45.5 ± 6.9% in series [1] (setting [7]) and 85.2 ± 3.9% in series [1] (setting [6]). For the same compound, the “chemical recovery into PDMS” value in series [2] (equilibration time (d): 1) was found to be 34.5 ± 1.3%; in series [2] (equilibration time (d): 3), 40.4 ± 3.4%; in series [2] (equilibration time (d): 6), 39.3 ± 2%. In addition, the results for the “chemical recovery by SPE of plasma” value in series [3] (equilibration time (d): 1), in series [3] (equilibration time (d): 3) and in series [3] (equilibration time (d): 6) were 9.29 ± 2%, 6.7 ± 0.88% and 4.56 ± 0.4%, respectively.

On to `CCOP(=S)(OCC)Oc1cc(C)nc(C(C)C)n1` [Diazinon], for which the chemical recovery in series [1] (setting [7]) was found to be 38 ± 6.1%; in series [1] (setting [6]), 62.9 ± 4.1%. In addition, the “chemical recovery into PDMS” value is 31.2 ± 2.3% in series [2] (equilibration time (d): 1), 34 ± 2.4% in series [2] (equilibration time (d): 3) and 34 ± 0.57% in series [2] (equilibration time (d): 6). Moreover, the “chemical recovery by SPE of plasma” value in series [3] (equilibration time (d): 1) was 0.161 ± 0.14%; in series [3] (equilibration time (d): 3), 0.223 ± 0.071%; in series [3] (equilibration time (d): 6) it was 0.073 ± 0.064%.

On to `Oc1ccc(Cl)cc1Cc1cc(Cl)ccc1O` [Dichlorophen], for which the results for the chemical recovery in series [1] (setting [4]), in series [1] (setting [7]) and in series [1] (setting [6]) were 78.9 ± 10%, 50.4 ± 7.8% and 45.7 ± 2.1%, respectively. Further, the “chemical recovery into PDMS” value was 0.919 ± 0.12% in series [2] (equilibration time (d): 1), 1.88 ± 0.2% in series [2] (equilibration time (d): 3) and 2.38 ± 0.74% in series [2] (equilibration time (d): 6). Further, the “chemical recovery by SPE of plasma” value in series [3] (equilibration time (d): 1) came to 53.2 ± 21%.

(Values after the supplement of paper PMC10702517.)
